System: compound-treated mice
Assay: Neuropharmacological assay (SmartCube): behavioral activity signature and minimal effective dose
Assay type: in vivo
Conditions: for minimal effective dose: Mus musculus, ip, MED = dose having 50% or more total activity, read-out: Potency: minimal effective dose (MED), binned; for AD: ADHD (probability of activity signature) / AG: analgesic (probability of activity signature) / AX: anxiolytic (probability of activity signature) / CE: cognitive enhancer (probability of activity signature) / DP: anti-depressant (probability of activity signature) / MS: mood stabilizer (probability of activity signature) / PS: anti-psychotic (probability of activity signature) / SD: sedative hypnotic (probability of activity signature) / UN: uncharacterized CNS activity (probability of activity signature): i.p. 15 min before test, most efficacious dose(s)
How it was run: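 Mice dosed i.p. 15 min before test, compound in N-methyl-2-pyrrolidone/PEG/propylene glycol, 3 doses; video-captured behavior matched to reference-drug signatures, giving per-class probabilities at most efficacious dose. MED from doses typically 0.3–30 mpk, defined as lowest dose with ≥50% total activity.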

CCC[C@@H]1OCc2ccccc2[C@@H]1N [Example 250]
minimal effective dose: 3 to 10 mg/kg
AD: ADHD (probability of activity signature): ++ (5% ≤ ++ <25%)
AG: analgesic (probability of activity signature): + (LOQ ≤ + <5%)
AX: anxiolytic (probability of activity signature): ++ (5% ≤ ++ <25%)
CE: cognitive enhancer (probability of activity signature): + (LOQ ≤ + <5%)
DP: anti-depressant (probability of activity signature): + (LOQ ≤ + <5%)
MS: mood stabilizer (probability of activity signature): ++ (5% ≤ ++ <25%)
PS: anti-psychotic (probability of activity signature): ++ (5% ≤ ++ <25%)
SD: sedative hypnotic (probability of activity signature): ++ (5% ≤ ++ <25%)
UN: uncharacterized CNS activity (probability of activity signature): + (LOQ ≤ + <5%)

Cc1ccc2c(c1)CO[C@H](C)[C@H]2N [Example 252]
minimal effective dose: < 3 mg/kg
AD: ADHD (probability of activity signature): + (LOQ ≤ + <5%)
AG: analgesic (probability of activity signature): + (LOQ ≤ + <5%)
AX: anxiolytic (probability of activity signature): + (LOQ ≤ + <5%)
CE: cognitive enhancer (probability of activity signature): + (LOQ ≤ + <5%)
DP: anti-depressant (probability of activity signature): ++ (5% ≤ ++ <25%)
MS: mood stabilizer (probability of activity signature): ++ (5% ≤ ++ <25%)
PS: anti-psychotic (probability of activity signature): ++ (5% ≤ ++ <25%)
SD: sedative hypnotic (probability of activity signature): ++ (5% ≤ ++ <25%)
UN: uncharacterized CNS activity (probability of activity signature): ++++ (50% ≤ ++++)

Cc1ccc2c(c1)CO[C@@H](C)[C@@H]2N [Example 253]
minimal effective dose: 3 to 10 mg/kg
AD: ADHD (probability of activity signature): + (LOQ ≤ + <5%)
AG: analgesic (probability of activity signature): + (LOQ ≤ + <5%)
AX: anxiolytic (probability of activity signature): + (LOQ ≤ + <5%)
CE: cognitive enhancer (probability of activity signature): + (LOQ ≤ + <5%)
DP: anti-depressant (probability of activity signature): ++ (5% ≤ ++ <25%)
MS: mood stabilizer (probability of activity signature): ++ (5% ≤ ++ <25%)
PS: anti-psychotic (probability of activity signature): ++ (5% ≤ ++ <25%)
SD: sedative hypnotic (probability of activity signature): ++ (5% ≤ ++ <25%)
UN: uncharacterized CNS activity (probability of activity signature): ++ (5% ≤ ++ <25%)

Cc1cccc2c1[C@H](C)OC[C@@H]2N [Example 255]
minimal effective dose: 10 to 30 mg/kg
AD: ADHD (probability of activity signature): + (LOQ ≤ + <5%)
AG: analgesic (probability of activity signature): + (LOQ ≤ + <5%)
AX: anxiolytic (probability of activity signature): + (LOQ ≤ + <5%)
CE: cognitive enhancer (probability of activity signature): + (LOQ ≤ + <5%)
DP: anti-depressant (probability of activity signature): + (LOQ ≤ + <5%)
MS: mood stabilizer (probability of activity signature): + (LOQ ≤ + <5%)
PS: anti-psychotic (probability of activity signature): + (LOQ ≤ + <5%)
SD: sedative hypnotic (probability of activity signature): ++ (5% ≤ ++ <25%)
UN: uncharacterized CNS activity (probability of activity signature): ++ (5% ≤ ++ <25%)

CC[C@@H]1OCc2ccccc2[C@@H]1NC.Cl [Example 258]
minimal effective dose: 3 to 10 mg/kg
AD: ADHD (probability of activity signature): + (LOQ ≤ + <5%)
AG: analgesic (probability of activity signature): + (LOQ ≤ + <5%)
AX: anxiolytic (probability of activity signature): + (LOQ ≤ + <5%)
CE: cognitive enhancer (probability of activity signature): + (LOQ ≤ + <5%)
DP: anti-depressant (probability of activity signature): ++ (5% ≤ ++ <25%)
MS: mood stabilizer (probability of activity signature): ++ (5% ≤ ++ <25%)
PS: anti-psychotic (probability of activity signature): + (LOQ ≤ + <5%)
SD: sedative hypnotic (probability of activity signature): ++ (5% ≤ ++ <25%)
UN: uncharacterized CNS activity (probability of activity signature): + (LOQ ≤ + <5%)

CC[C@H]1OCc2ccccc2[C@@H]1NC.Cl [Example 259]
minimal effective dose: 10 to 30 mg/kg
AD: ADHD (probability of activity signature): + (LOQ ≤ + <5%)
AG: analgesic (probability of activity signature): + (LOQ ≤ + <5%)
AX: anxiolytic (probability of activity signature): + (LOQ ≤ + <5%)
CE: cognitive enhancer (probability of activity signature): + (LOQ ≤ + <5%)
DP: anti-depressant (probability of activity signature): ++ (5% ≤ ++ <25%)
MS: mood stabilizer (probability of activity signature): + (LOQ ≤ + <5%)
PS: anti-psychotic (probability of activity signature): + (LOQ ≤ + <5%)
SD: sedative hypnotic (probability of activity signature): +++ (25% ≤ +++ <50%)
UN: uncharacterized CNS activity (probability of activity signature): ++ (5% ≤ ++ <25%)

CCCN[C@@H]1COCc2ccccc21.Cl [Example 262]
minimal effective dose: 10 to 30 mg/kg
AD: ADHD (probability of activity signature): + (LOQ ≤ + <5%)
AG: analgesic (probability of activity signature): + (LOQ ≤ + <5%)
AX: anxiolytic (probability of activity signature): + (LOQ ≤ + <5%)
CE: cognitive enhancer (probability of activity signature): + (LOQ ≤ + <5%)
DP: anti-depressant (probability of activity signature): ++ (5% ≤ ++ <25%)
MS: mood stabilizer (probability of activity signature): + (LOQ ≤ + <5%)
PS: anti-psychotic (probability of activity signature): + (LOQ ≤ + <5%)
SD: sedative hypnotic (probability of activity signature): ++ (5% ≤ ++ <25%)
UN: uncharacterized CNS activity (probability of activity signature): ++ (5% ≤ ++ <25%)

C#CCN[C@@H]1COCc2ccccc21.Cl [Example 263]
minimal effective dose: < 3 mg/kg
AD: ADHD (probability of activity signature): + (LOQ ≤ + <5%)
AG: analgesic (probability of activity signature): + (LOQ ≤ + <5%)
AX: anxiolytic (probability of activity signature): + (LOQ ≤ + <5%)
CE: cognitive enhancer (probability of activity signature): + (LOQ ≤ + <5%)
DP: anti-depressant (probability of activity signature): + (LOQ ≤ + <5%)
MS: mood stabilizer (probability of activity signature): + (LOQ ≤ + <5%)
PS: anti-psychotic (probability of activity signature): + (LOQ ≤ + <5%)
SD: sedative hypnotic (probability of activity signature): ++ (5% ≤ ++ <25%)
UN: uncharacterized CNS activity (probability of activity signature): + (LOQ ≤ + <5%)

CCCN[C@@H]1c2ccccc2CO[C@H]1C.Cl [Example 264]
minimal effective dose: 3 to 10 mg/kg
AD: ADHD (probability of activity signature): ++ (5% ≤ ++ <25%)
AG: analgesic (probability of activity signature): + (LOQ ≤ + <5%)
AX: anxiolytic (probability of activity signature): ++ (5% ≤ ++ <25%)
CE: cognitive enhancer (probability of activity signature): + (LOQ ≤ + <5%)
DP: anti-depressant (probability of activity signature): ++ (5% ≤ ++ <25%)
MS: mood stabilizer (probability of activity signature): ++ (5% ≤ ++ <25%)
PS: anti-psychotic (probability of activity signature): +++ (25% ≤ +++ <50%)
SD: sedative hypnotic (probability of activity signature): ++ (5% ≤ ++ <25%)
UN: uncharacterized CNS activity (probability of activity signature): + (LOQ ≤ + <5%)

Reference: patent publication US11077090B2, “Compounds and compositions and uses thereof” (Sunovion Pharmaceuticals Inc., priority 2016, dated 2021)
